Test system: IFN-γ
Experiment: Serum IFN-γ concentration by sandwich ELISA after i.v. injection of glycolipid into mice
Format: in vivo
Details: BALB/c mice, 1 μg i.v., ELISA at 2, 6, 12 and 24 hours post-injection
Description: α-Galactosylceramide (α-GalCer, KRN or KRN7000) was synthesized by Kirin Brewery (Gumma, Japan). The stock solution was dissolved in a 0.5% polysorbate −20 (Nikko Chemical, Tokyo), 0.9% NaCl solution at a concentration of 200 μg/ml, and diluted in PBS just before injection into mice. α-C-galactosylceramide (α-C-GalCer, CRONY or CRONY-101) was synthesized as described in commonly owned U.S. patent application Ser. No. 10/462,211. Compounds […], GCK75(a) and GCK75(b) were synthesized as described herein. The stock solution was originally dissolved in 100% DMSO at a concentration of 1 mg/ml. Before injection into mice, it was diluted to a concentration of 200 μg/ml in a 0.5% polysorbate-20 (Nikko Chemical, Tokyo), 0.9% NaCl solution, and diluted in PBS just before injection into mice. […]
The serum concentrations of IFN-γ were measured at 2, 6, 12, and 24 hours after treatment with α-GalCer, α-C-GalCer, compound […], GCK75(a), GCK75(b), or nothing using a sandwich ELISA (e-bioscience, San Diego).
To compare the timing of immunological responses to α-GalCer (KRN), α-C-GalCer (CRONY), GCM11i, GCK75(a), and GCK75(b), mice were injected intravenously (i.v.) with 1 μg of each of the glycolipids or with nothing. At 2, 6, 12, and 24 hours post-injection, IFN-γ concentrations in the sera were measured by ELISA.

α-C-galactosylceramide [α-C-GalCer]
time of peak IFN-γ response in the sera post-injection: 24 h

Reference: patent publication US20050222048A1, “Novel synthetic C-glycolipids, their synthesis and use to treat infections, cancer and autoimmune diseases” (The Research Foundation of The City University of New York, priority 2004, published 2005)
